Here are results for 11 molecules from ChEMBL document CHEMBL1201862, “PubChem BioAssay data set” (2004).

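Following 48 hours of exposure in 96-well plates, responses at five concentrations were used to interpolate endpoints linearly. GI50 is the concentration that inhibits growth by half.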 Activity calls are given as the source filed them. Cut-off read from the data, not from the text of the source: active = GI50 up to about 1.1 µM and inactive = higher.

Test systems include SF-295; UO-31; RXF 393; HCT-15; OVCAR-5; HL-60; NCI-H226; SF-539; Malme-3M; SNB-75; M14; TK-10; HCT-116; UACC-257; 786-0; OVCAR-8; SK-MEL-2; OVCAR-4; NCI-H460; T47D.
Common to all, as to assay: NCI tumour cell line growth inhibition, 48 h

With `O=C(Nc1nc2ccc([N+](=O)[O-])cc2s1)C(=O)C(C1OC(=O)c2ccccc21)[N+](=O)[O-]` (configuration not stated), the GI50 is 91.2 µM (inactive) in the experiment on SF-295; 20.3 µM (inactive) in the experiment with UO-31; 27.5 µM (inactive) in the experiment on RXF 393; 66.7 µM with HCT-15; > 100 µM (inactive) in the experiment on OVCAR-5; 63.2 µM (inactive) in the experiment with HL-60. In addition, the GI50 with NCI-H226 was 55.8 µM (inactive); in the experiment on SF-539 it was 49.9 µM (inactive); in the experiment on Malme-3M it was > 100 µM (inactive); in the experiment on SNB-75, 35.6 µM (inactive); with M14, > 100 µM (inactive); with TK-10, 69.2 µM (inactive). For the same molecule, the GI50 in the experiment on HCT-116 is 97.5 µM (inactive); with UACC-257 it was > 100 µM (inactive); in the experiment with 786-0, > 100 µM (inactive); in the experiment with OVCAR-8 it was > 100 µM (inactive); in the experiment with SK-MEL-2, 41.5 µM (inactive); in the experiment on OVCAR-4, > 100 µM (inactive). The GI50 with NCI-H460 was > 100 µM (inactive).

Take `COc1cc(C2C(C(=O)Nc3cc(F)c(F)cc3F)=C(C)NC(C)=C2C(=O)Nc2cc(F)c(F)cc2F)ccc1O`: the GI50 in the experiment with SF-295 is 21.3 µM (inactive); in the experiment on UO-31, 8.04 µM (inactive); with RXF 393 it was 10.6 µM (inactive); in the experiment on OVCAR-5, 17.4 µM (inactive); in the experiment on HL-60 it was 15.7 µM (inactive); in the experiment on NCI-H226, 23.6 µM (inactive). The GI50 with SF-539 is 26.8 µM (inactive); with Malme-3M, 24.7 µM (inactive); with SNB-75, 2.36 µM (inactive); in the experiment with M14, 25.2 µM (inactive); with TK-10, 28.3 µM (inactive); with UACC-257 it was 17.9 µM (inactive). Moreover, the GI50 in the experiment with 786-0 is 26.7 µM (inactive); in the experiment on OVCAR-8, 25.4 µM (inactive); in the experiment with SK-MEL-2 it was 22.5 µM (inactive); in the experiment on OVCAR-4 it was 17.3 µM (inactive); in the experiment on NCI-H460 it was 27.3 µM (inactive).

In the case of `Cc1ccc2c(C3Cc4ccccc4N3C(=O)/C=C\C(=O)O)c(C)[nH]c2c1` (configuration not stated), the GI50 in the experiment with SF-295 is 28.8 µM (inactive); in the experiment with UO-31, 44.3 µM (inactive); in the experiment with RXF 393 it was 29.9 µM (inactive); in the experiment with HCT-15 it was 26.9 µM; with OVCAR-5, > 100 µM (inactive); in the experiment with HL-60, 19.6 µM (inactive). Further, the GI50 was > 100 µM (inactive) in the experiment on NCI-H226; 47.2 µM (inactive) in the experiment with SF-539; 33.5 µM (inactive) in the experiment on Malme-3M; 35.4 µM (inactive) with SNB-75; 44.4 µM (inactive) with M14; 56.1 µM (inactive) in the experiment with TK-10. Moreover, the GI50 with HCT-116 was 53 µM (inactive); in the experiment on UACC-257, 41.3 µM (inactive); in the experiment with 786-0, 47.9 µM (inactive); in the experiment with OVCAR-8 it was 30.6 µM (inactive); with SK-MEL-2, 17.5 µM (inactive); with OVCAR-4, > 100 µM (inactive). Moreover, the GI50 in the experiment on NCI-H460 was > 100 µM (inactive).

In the case of `COc1ccc(N2C(=O)C3CC4=CC(=O)C[C@H]4[C@H]32)cc1` (some centres not stated), the GI50 in the experiment with SF-295 was > 100 µM (inactive); in the experiment on UO-31 it was 37.2 µM (inactive); with RXF 393, 82 µM (inactive); in the experiment with HCT-15 it was 40.9 µM; in the experiment on OVCAR-5, 88.1 µM (inactive); in the experiment with T47D it was > 100 µM (inactive). Further, the GI50 with NCI-H226 is 42.8 µM (inactive); in the experiment on SNB-75, 93.5 µM (inactive); in the experiment with M14, > 100 µM (inactive); with TK-10, 58.7 µM (inactive); in the experiment with HCT-116, 20.7 µM (inactive); in the experiment with UACC-257, 64.9 µM (inactive). The GI50 is 26.3 µM (inactive) in the experiment with 786-0; 49.4 µM (inactive) in the experiment on OVCAR-8; > 100 µM (inactive) in the experiment on SK-MEL-2; > 100 µM (inactive) in the experiment on OVCAR-4; 58.2 µM (inactive) in the experiment on NCI-H460.

As for `CC(=O)OC1COC(N2C(=O)C(=O)c3cc(Br)c([N+](=O)[O-])cc32)C(OC(C)=O)C1OC(C)=O` (configuration not stated), the GI50 was > 100 µM (inactive) in the experiment on SF-295; 32.1 µM (inactive) with RXF 393; over 100 µM with HCT-15; > 100 µM (inactive) in the experiment on OVCAR-5; 31 µM (inactive) in the experiment on HL-60; > 100 µM (inactive) with NCI-H226. Also, the GI50 was > 100 µM (inactive) with SF-539; 71 µM (inactive) with Malme-3M; 22.5 µM (inactive) with SNB-75; > 100 µM (inactive) in the experiment on M14; > 100 µM (inactive) in the experiment on TK-10; 77.3 µM (inactive) in the experiment on HCT-116. Also, the GI50 was > 100 µM (inactive) in the experiment with UACC-257; > 100 µM (inactive) in the experiment on 786-0; 83.6 µM (inactive) in the experiment on OVCAR-8; > 100 µM (inactive) in the experiment with SK-MEL-2; 42.6 µM (inactive) in the experiment on OVCAR-4; > 100 µM (inactive) in the experiment on NCI-H460.

For the molecule `COC(=O)N/N=C(/Cc1occc(=O)c1O)C(=O)Nc1ccc([N+](=O)[O-])cc1[N+](=O)[O-]`, the GI50 with SF-295 is > 100 µM (inactive); in the experiment on UO-31, > 100 µM (inactive); in the experiment on RXF 393 it was > 100 µM (inactive); with HCT-15, over 100 µM; with OVCAR-5, > 100 µM (inactive); with HL-60 it was > 100 µM (inactive). Moreover, the GI50 in the experiment with NCI-H226, in the experiment on SF-539, in the experiment with Malme-3M, in the experiment on SNB-75, in the experiment with M14 and with TK-10 was > 100 µM (inactive) each time. In addition, the GI50 with HCT-116, with UACC-257, in the experiment with 786-0, in the experiment with OVCAR-8, with SK-MEL-2 and in the experiment on OVCAR-4 was > 100 µM (inactive) in each case. In addition, in the experiment with NCI-H460, the GI50 was > 100 µM (inactive).

With `COc1ccc(C2ON(c3ccccc3)CC=C2C)cc1` (configuration not stated), the GI50 was 93.8 µM (inactive) with SF-295; 34 µM (inactive) in the experiment with UO-31; 34.4 µM (inactive) in the experiment on RXF 393; 65.9 µM in the experiment on HCT-15; 34 µM (inactive) in the experiment on OVCAR-5; 34.6 µM (inactive) with HL-60. Besides, the GI50 in the experiment on NCI-H226 is > 100 µM (inactive); in the experiment on SF-539, > 100 µM (inactive); in the experiment with Malme-3M it was > 100 µM (inactive); in the experiment with SNB-75, 94.8 µM (inactive); in the experiment with M14 it was 80.7 µM (inactive); in the experiment with TK-10, > 100 µM (inactive). In addition, the GI50 was 66.7 µM (inactive) with HCT-116; 42.5 µM (inactive) in the experiment with UACC-257; > 100 µM (inactive) in the experiment with 786-0; > 100 µM (inactive) in the experiment on OVCAR-8; 24 µM (inactive) in the experiment on SK-MEL-2; 34.5 µM (inactive) with OVCAR-4. In the experiment with NCI-H460, the GI50 was > 100 µM (inactive).

For `COc1ccc(-c2cc(=O)c3ccccc3o2)cc1N`, the GI50 in the experiment with SF-295 was 41.7 µM (inactive); in the experiment on UO-31, 19.9 µM (inactive); in the experiment with RXF 393, 23.6 µM (inactive); in the experiment on HCT-15 it was 46.6 µM; in the experiment with OVCAR-5, 56 µM (inactive); in the experiment on HL-60 it was 15.6 µM (inactive). Besides, the GI50 in the experiment with NCI-H226 is > 100 µM (inactive); in the experiment on SF-539, 33.9 µM (inactive); with Malme-3M, > 100 µM (inactive); in the experiment on SNB-75, 18.7 µM (inactive); in the experiment on M14, 27.1 µM (inactive); in the experiment on TK-10, > 100 µM (inactive). In addition, the GI50 in the experiment with HCT-116 is 32.8 µM (inactive); with UACC-257, 51.3 µM (inactive); in the experiment with 786-0 it was > 100 µM (inactive); with OVCAR-8, 36.1 µM (inactive); in the experiment with SK-MEL-2 it was 37.2 µM (inactive); in the experiment on OVCAR-4, 40.9 µM (inactive). In addition, the GI50 with NCI-H460 was 36 µM (inactive).

On to `CCc1ccccc1NC(=O)/C(CC(=O)c1c(C)[n+]([O-])c2ccccc2[n+]1[O-])=N\NS(=O)(=O)c1ccc(C)cc1`, for which the GI50 in the experiment with SF-295 was > 100 µM (inactive); in the experiment with UO-31, > 100 µM (inactive); in the experiment on RXF 393, > 100 µM (inactive); with HCT-15, 33.7 µM; with OVCAR-5, > 100 µM (inactive); in the experiment on HL-60, 15.8 µM (inactive). Besides, the GI50 with NCI-H226 was > 100 µM (inactive); in the experiment with SF-539, 36.6 µM (inactive); with Malme-3M, 57.4 µM (inactive); with SNB-75 it was > 100 µM (inactive); with M14, 32.8 µM (inactive); in the experiment with TK-10, > 100 µM (inactive). Moreover, the GI50 was 16.8 µM (inactive) in the experiment with HCT-116; 23.9 µM (inactive) in the experiment on UACC-257; 87.5 µM (inactive) in the experiment with 786-0; 27 µM (inactive) with OVCAR-8; > 100 µM (inactive) in the experiment on SK-MEL-2; 22.5 µM (inactive) in the experiment with OVCAR-4. The GI50 with NCI-H460 is 25.6 µM (inactive).

`C[C@]12CC[C@H](O)CC1=CC[C@@H]1[C@@H]2CC[C@]2(C)/C(=N/OCCN3CCCC3)CC[C@@H]12`: the GI50 is 19.4 µM (inactive) with SF-295; 16.7 µM (inactive) in the experiment with UO-31; 15.1 µM (inactive) in the experiment on RXF 393; 12.1 µM in the experiment with HCT-15; 28.2 µM (inactive) in the experiment with OVCAR-5; 7.74 µM (inactive) in the experiment on HL-60. Besides, the GI50 is 14.5 µM (inactive) with NCI-H226; 14.6 µM (inactive) in the experiment with SF-539; 14.1 µM (inactive) in the experiment on Malme-3M; 19.3 µM (inactive) in the experiment with SNB-75; 24.1 µM (inactive) in the experiment with TK-10; 14.9 µM (inactive) in the experiment with HCT-116. The GI50 in the experiment on UACC-257 is 14.6 µM (inactive); in the experiment on 786-0 it was 18.1 µM (inactive); in the experiment with OVCAR-8 it was 16.3 µM (inactive); in the experiment with SK-MEL-2, 21 µM (inactive); in the experiment with OVCAR-4 it was 16.4 µM (inactive); in the experiment with NCI-H460, 12 µM (inactive).

On to `CC(C)[Si](OCC1CC(C[C@H]2CC(C[C@H]3C[C@@H](CO[Si](C(C)C)(C(C)C)C(C)C)OC(C)(C)O3)OC(C)(C)O2)OC(C)(C)O1)(C(C)C)C(C)C` (some centres not stated), for which the GI50 with SF-295, in the experiment on UO-31, with RXF 393, in the experiment with OVCAR-5, with HL-60 and in the experiment on NCI-H226 was > 100 µM (inactive) in each case. The GI50 in the experiment with SF-539, in the experiment on Malme-3M, in the experiment on SNB-75, with M14, in the experiment with TK-10 and with HCT-116 was > 100 µM (inactive) each time. Moreover, the GI50 in the experiment with UACC-257, in the experiment on 786-0, in the experiment with OVCAR-8, in the experiment with SK-MEL-2, in the experiment on OVCAR-4 and with NCI-H460 was > 100 µM (inactive) throughout.
